From patent publication US20050137806A1 (priority 2003, published 2005)
Where a name gives a salt, the structure may show the parent alone.

System: a cell line
Type: cell-based
Settings: for mitotic index as a function of drug concentration (dose response path): FIG. 2A, drugs in aqueous DMSO, multiple concentrations, fraction of cells in mitosis
Procedure: As shown, four different drugs were tested against a cell line at multiple concentrations. Taxol, one of the drugs, was tested twice. For each drug at each concentration various images were taken to extract various cellular features by image analysis. In some cases, basic extracted features are analyzed using appropriate classification algorithm to provide higher-level biological classifications such as mitotic state. In FIG. 2A, the feature is “mitotic index” (a numerical classification of the cells an image on basis of the fraction of them in mitosis) shown as the dependent variable with respect to concentration in a two-dimensional plot.
All drugs were provided in an aqueous solution of dimethyl sulfoxide (DMSO). As a negative control, the cells were exposed to aqueous DMSO without any drug present. Normally, an aqueous DMSO solution is used as the solvent for delivering drugs to samples. The feature values extracted for cells exposed to the DMSO control are shown as signatures 207.
Another approach replaces the concentration variable (generally a level of stimulus variable) with another variable that can depict a trajectory but is relatively independent of potency. In other words, the chosen feature space is independent (or largely independent) of dose (concentration). […] This new variable is a measure of the number of cells that survived the treatment. Because the variable changes only when the drug begins taking effect (regardless of absolute concentration), it effectively puts all curves on the same potency scale. Using this plot, one can more rigorously classify Taxol and Cytochalasin A as having the same mechanism of action (based on mitotic index as the dependent variable).

Structure (SMILES)	mitotic index as a function of drug concentration (dose response path)	mitotic index versus number of cells (response path comparison) (FIG. 2B, concentration not displayed, number of cells that survived treatment as axis)
CC(=O)O[C@H]1C(=O)[C@@]2(C)[C@H]([C@H](OC(=O)c3ccccc3)[C@]3(O)C[C@H](OC(=O)[C@H](O)[C@@H](NC(=O)c4ccccc4)c4ccccc4)C(C)=C1C3(C)C)[C@]1(OC(C)=O)CO[C@@H]1C[C@@H]2O [Taxol]	S-shaped	act similarly to the tested concentrations of Vinblastine Sulfate
CC[C@@H]1/C=C/C=C/C[C@H](C)[C@H](O)[C@](C)(O)C(=O)[C@H](C)[C@@H](O)[C@H](C)C(=O)[C@H](C)[C@@H](O)[C@H](C)/C=C/C(=O)O[C@H]2[C@@H](C)[C@@H](CC1)O[C@@]1(CC[C@@H](C)[C@@H](C[C@H](C)O)O1)[C@@H]2C [Oligomycin A]	very little impact on mitotic index until relatively high concentrations are used	
CC[C@]1(O)C[C@@H]2CN(CCc3c([nH]c4ccccc34)[C@@](C(=O)OC)(c3cc4c(cc3OC)N(C)[C@H]3[C@@](O)(C(=O)OC)[C@H](OC(C)=O)[C@]5(CC)C=CCN6CC[C@]43[C@@H]65)C2)C1 [Vinblastine Sulfate]	relatively high numerical value of mitotic index at various concentrations	
C=C1[C@@H](C)[C@H]2[C@H](Cc3ccccc3)NC(=O)[C@]23OC(=O)/C=C/C(=O)CCC[C@@H](C)C/C=C/[C@H]3[C@@H]1O [Cytochalasin A]	S-shaped	
